The test system of data set [1] is azoxymethane (AOM)-induced aberrant crypt foci (ACF). Particulars: dietary intake; initiation and post-initiation feeding experiments; male F344 rats; cited from earlier work.
The test system of data set [2] is MDA-MB-435 oestrogen receptor-negative human breast cancer cells. The settings on record: MDA-MB-435 cells; [3H] thymidine incorporation; cited from earlier work. On the technique in general: Dividing cells build labelled thymidine or BrdU into new DNA.
For data set [3], the system named is 7,12-dimethylbenz[a]anthracene (DMBA)-induced buccal pouch epidermoid carcinomas. Particulars: cited from earlier work; for incidence of DMBA-induced buccal pouch epidermoid carcinomas: female Syrian hamsters.
Data set [4] in a line: Anti-oxidant properties. The text has this:
This offers potential advantages over the use of synthetic methods which require more complicated procedures to prepare pure limonoid compounds.

For data set [5], the system named is cancer cells. Kind of data set: Inhibition of cancer cells in cell culture models. In kind it is cell-based. From the text:
(§1) Limon glucoside is a triterpene derivative, in which aglycone part is linked to a glucose moiety, and it is water-soluble. Citrus plants containing the above-named limonoid glucoside derivatives belong to the Rutaceae family, and include, for example, Citrus paradisi and Citrus aurantium. The fresh fruits of Citrus paradisi (Rio Red grapefruit) and Citrus aurantium (sour orange) are currently produced in large amounts as acidulants for preparing juice and pickles in various parts of the World, and thus are readily available sources for extraction of limonoid glucosides. A method or process for isolating limonoid glucosides in gram quantities was devised.

The subject of data set [6] is benzo[a]pyrene-induced forestomach neoplasia. The settings on record: mice; cited from earlier work.
In data set [7] the test system is DMBA-induced buccal pouch tumours. Particulars: hamsters; cited from earlier work.
A short description of data set [8]: Water solubility. It is filed as physicochemical.
Description: as §1

Take `CC1(C)O[C@H]2CC(=O)OC[C@]23[C@H]2CC[C@@]4(C)[C@H](c5ccoc5)OC(=O)[C@H]5O[C@]54[C@]2(C)C(=O)C[C@@H]13` [limonin]: the “formation of aberrant crypt foci (ACF)” value in data set [1] was “significantly inhibited”. Moreover, the “IC50, inhibition of proliferation” value in data set [2] was 12.5 µg/mL. In addition, the “incidence of DMBA-induced buccal pouch epidermoid carcinomas” value in data set [3] is on record as “reduced the incidence”. Also, in data set [3] (limonin compared with nomilin), the “comparative inhibition of DMBA-induced neoplasia” value was “more effective inhibitor”.
For the compound “isoobacunoic-17-β-D-glucopyranoside [Compound (1)]”, in data set [4], the anti-oxidant properties result is recorded as “exhibit anti-oxidant properties”. Moreover, the “inhibition of cancer cells” value in data set [5] is listed as “exhibited inhibition”.
Take `CC(=O)O[C@H]1CC(=O)OC(C)(C)[C@@H]2CC(=O)[C@]3(C)[C@H](CC[C@@]4(C)[C@H](c5ccoc5)OC(=O)[C@H]5O[C@]543)[C@@]12C` [nomilin]: in data set [2], the “IC50, inhibition of proliferation” value was 0.4 µg/mL. Further, the “inhibition of benzo[a]pyrene-induced forestomach neoplasia” value in data set [6] was “inhibited”. Also, the “incidence of DMBA-induced buccal pouch epidermoid carcinomas” value in data set [3] was “reduced the incidence”.
On to nomilin 17-β-D-glucopyranoside [NG], for which the “decrease of average tumour burden” value in data set [7] is listed as “only LG was effective”.
As for “nomilinic acid 17-β-D-glucopyranoside [NAG]”, the “decrease of average tumour burden” value in data set [7] is “only LG was effective”.
As for `CC1(C)O[C@H]2CC(=O)OC[C@]23[C@H]2CC[C@@](C)([C@@H](O[C@@H]4O[C@H](CO)[C@@H](O)[C@H](O)[C@H]4O)c4ccoc4)[C@@]4(O[C@@H]4C(=O)O)[C@]2(C)C(=O)C[C@@H]13` [Compound (2), limonin-17-β-D-glucopyanoside], the water solubility entry in data set [8] was “water-soluble”. Moreover, the anti-oxidant properties result in data set [4] was “exhibit anti-oxidant properties”. Besides, the “IC50, inhibition of proliferation” value in data set [2] was 75 µg/mL. Moreover, the “decrease of average tumour burden” value in data set [7] was “effective”. Moreover, the “inhibition of cancer cells” value in data set [5] was “exhibited inhibition”.
Take “deacetyl nomilinic acid glucoside [Compound (3)]”: the anti-oxidant properties result in data set [4] is “exhibit anti-oxidant properties”. In data set [5], the “inhibition of cancer cells” value was “exhibited inhibition”.
`CC1(C)OC(=O)C=C[C@]2(C)[C@H]3CC[C@@]4(C)[C@H](c5ccoc5)OC(=O)[C@H]5O[C@]54[C@]3(C)C(=O)C[C@@H]12` [obacunone]: in data set [1], the “formation of aberrant crypt foci (ACF)” value is reported as “significantly inhibited”.
